The experiment can be described thus: Total Antioxidant Capacity (TAC) assay. To be noted: highest peptide concentration 1.5 mM. The procedure:
As previously reported, the TAC (Total Antioxidant Capacity) Assay (Cell Biolabs, Inc, San Diego, Calif.) was used to measure the antioxidant capacity of the PIC1 variants based on the reduction of copper (II) to copper (I). The kit protocol was performed per the manufacturer's recommendations.
The antioxidant properties for the PIC1 variants were evaluated in a Total Antioxidant Capacity (TAC) assay, as previously reported. Total antioxidant activity over a range of peptide concentrations were determined for the stapled and the D-amino acid peptides based on the PA-I8Sar and PA-C9Sar backbones (FIG. 8A-8D), with the activity of the highest peptide concentration reported (1.5 mM) (FIGS. 4A and B, respectively). […] For the D-amino acid variants, there was variation in the amount of antioxidant activity with the peptides having similar, slightly lower and slightly higher levels of total antioxidant capacity. In contrast, stapled peptides (PA-0135 through -0140) as well as combination of stapled and D-amino acid peptides had reduced total antioxidant capacity (FIG. 4A).

Results on one compound are retold here after US20230272012A1, “PEPTIDES AND METHODS OF USE” (REALTA LIFE SCIENCES, INC., priority 2020, published 2023).

Bridge positions count the residues as written; N and C are the ends. Square brackets hold non-standard residues; d marks the D form. Peptide text beside a SMILES is read from it. R8 = C=CCCCCCC[C@@](C)(N)C(=O)O; S5 = C=CCCC[C@](C)(N)C(=O)O; Sar = CNCC(=O)O

With `CC[C@H](C)[C@H](N)C(=O)N[C@]1(C)CCCCCCC=CCCC[C@@](C)(C(=O)N[C@@H](CS)C(=O)N[C@@H](CCC(N)=O)C(=O)N[C@@H](CCC(=O)O)C(=O)N[C@@H](CCCNC(=N)N)C(=O)N[C@@H](C)C(=O)N[C@@H](C)C(=O)O)NC(=O)CN(C)C(=O)[C@@H]2CCCN2C(=O)[C@H](CCC(=O)O)NC(=O)[C@H](CC(C)C)NC(=O)[C@H]([C@@H](C)CC)NC(=O)[C@H](CC(C)C)NC1=O` [PA-0115, IR8LILEP(Sar)S5CQERAA] (H-I[R8]LILEP[Sar][S5]CQERAA-OH; staple 2-9), the “total antioxidant capacity compared with PA-I8Sar” value is recorded as “much less antioxidant activity”. In addition, the “total antioxidant capacity compared with PA-I8Sar” value (listed as PA-0015) is listed as “reduction in total antioxidant capacity”.
